Experimental data from US10213445B2, “Compositions and methods of diazeniumdiolate-based prodrugs for treating cancer” (ARIZONA BOARD OF REGENTS ON BEHALF OF THE UNIVERSITY OF …, priority 2014, dated 2019).

Experiments:
PARP = biological target: T1, PARP (Homo sapiens, UniProt P09874); conditions: caspase-3 null MCF-7 cells; cited from earlier work
T1 construct: on PARP activity has been determined in caspase-3 null MCF-7 cells; host or cells: MCF-7

[1] = tested on: angiogenesis in mouse tumor specimens; conditions: high concentration; cited from earlier work
[2] = biological target: hypoxia-inducible factor (HIF) 1α (Homo sapiens, UniProt Q16665); conditions: high concentration, human breast cancer cells; cited from earlier work
MDA-MB-231 xenograft = conditions: SCID mice, 17 and 50 mg kg^−1, compared to control; cited from earlier work
[3] = tested on: vascular endothelial growth factor (VEGF); conditions: high concentration; cited from earlier work
[4] = Alkaline hydrolysis at pH 11 followed by NMR; type: physicochemical
Method: Organic products of the hydrolysis of 1 and 2 were quantified by integrating their NMR spectra. For pH 7.4, 3.9 mM solutions in 0.1 M phosphate buffer were employed. For pH 11, 4.9 mM solutions of 1 and 2 in 50 mM sodium carbonate were studied. Samples were run on a Varian Inova 400 MHz NMR with a Dell Precision 390 workstation. The samples were run at 37° C. and water suppression was achieved by using the preset pulse sequence. Peaks were identified by comparison with authentic standards.
Differences in time course as well as stoichiometry in the alkaline hydrolysis of 1 and 2 also matched the expectation based on the HNO/NO yield and rate data. […] Compound 2, on the other hand, completely dissociated within 5 min at 37° C. in a pH 11 carbonate buffer. […] However, the amine was undetectable.

[5] = Decomposition kinetics by UV spectrophotometry in PBS; type: physicochemical; conditions: for pH dependence of hydrolysis rate: 37° C.
Method: FIGS. 3A and 3B are graphs illustrating the pH-dependence of the rate constant of decomposition of (FIG. 3A) 1 (100 or 200 μM) and (FIG. 3B) 2 (100 μM) at 37° C. in PBS containing 50 μM DTPA measured at 250 nm (mean±SEM, n≥3).
(§1) The rate constants of decomposition were measured spectrophotometrically by monitoring the decrease in absorbance of peaks at ^˜240-250 nm characteristic of the diazeniumdiolate functionality. The hydrolysis medium consisted of the metal chelator diethylenetriaminepentaacetic acid (DTPA, 50 μM) in calcium- and magnesium-free Dulbecco's phosphate-buffered saline (PBS, pH 7.4). UV-visible spectroscopy was performed with a Hewlett-Packard 8453 diode-array spectrophotometer equipped with Agilent 89090A thermostat set to 37° C. The spectrophotometer was blanked after warming the cuvette containing buffer at the appropriate pH in the instrument heat block for 5 min. For esterase-containing reactions, porcine liver esterase (20 μL; Sigma; suspension in 3.2 M (NH4)2SO4, pH 8) was added to the reaction buffer before blanking. Upon addition of IPA/NO (1) or AcOM-IPA/NO (2) (≤10 μL of stock), the cuvette was capped and inverted to mix. Spectra were collected at 0.5- to 60-s intervals for time periods of 2-120 min or until A∞<0.05. Kinetic analysis was performed by fitting the data to an exponential decay (A=ΔAe^−kt+A∞) using KaleidaGraph v.3.1.

porcine liver esterase = assay: Esterase-catalyzed hydrolysis; type: in vitro ADME
Method: FIGS. 4A-C are graphs illustrating spontaneous hydrolysis (FIGS. 4A and 4B) and esterase-catalyzed hydrolysis (FIG. 4C) of 2 in an embodiment of the invention. In FIG. 4A, spectra were collected every 60 s (10-min intervals shown) after dissolving 2 in PBS (pH 7.4) at 37° C., and only loss of the parent compound was observed. In FIG. 4B, the pH was elevated to 12, and scans were collected every 0.5 s (through 2.5 s and 3.5, 5.5, 9.5, and 54.5 shown). In FIG. 4C, porcine liver esterase (20 μL in 3 mL) was added (pH 7.4), and spectra were collected every 10 s. Hydrolysis of 2 (λmax 236 nm) to 1 (λmax 250 nm) was complete within 40 s (0.067 s^−1) under these conditions. […] Elevation of the intensity near 200 nm indicated formation of autoxidation products such as nitrite. Deaeration inhibited this peak (data not shown).
as §1

MDA-MB-231 cells = assay: Oxidation of DCF (oxidant level) in cells; type: cell-based, human; conditions: 100 μM, 37° C., MDA-MB-231 as representative example
Method: DCF loaded cells were treated with IPA/NO-aspirin (blue), DEA/NO-aspirin (green), IPA/NO (magenta), DEA/NO (brown), aspirin (red) or DMSO (0.1%; black) at 37° C., and the fluorescence at 535 nm was measured in a time-dependent manner. Data are plotted as mean±SD (n=4).

[6] = tested on: various cancer cells lines; conditions: read-out: IC50 (cytotoxicity); cited from earlier work
BCL-2 = BCL-2 expression; type: cell-based; conditions: FIG. 18
ER-α = ER-α levels (mRNA of ER1) in ER-α(−) cells; type: cell-based; conditions: FIG. 20
MDA-MB-231 xenografts = assay: MDA-MB-231-GFP xenograft growth and brain metastasis in nude mice; type: in vivo; conditions: daily injection of equimolar doses for five weeks, vs control
Method: The cells were allowed to grow for 14 d, and the animals (40) were randomly divided into four groups (control, aspirin, IPA/NO-aspirin or DEA/NO-aspirin). Treated groups were injected daily with equimolar doses of DEA/NO-aspirin or IPA/NO-aspirin (16 mg kg^−1) or aspirin (9 mg kg^−1)) or with DMSO for the next five weeks.
For examples utilizing mouse tumor model methods, the following procedure was instituted. Analysis of tumor growth was carried out using protocols approved by the Committee on the Ethics of Animal Experiments of the National Cancer Institute (RBB-144) and adhered with the recommendations in the United States National Research Council's “Guide for the Care and Use of Laboratory Animals,” the United States Public Health Service's “Guide for the Care and Use of Laboratory Animals” and the “Policy on Humane Care and Use of Laboratory Animals”. The vivarium was maintained at 23° C. on a 12 h light/12 h dark cycle with ad libitum access to food and water. Nude mice (n=40) under general anesthesia were implanted with 7.5×10^5 MDA-MB-231 cells transfected with GFP by injection underneath the fourth left mammary gland. Prior to implantation, pedal withdrawal and eyelid reflexes were examined to ensure that mice were under stage III of anesthesia. At 14 days post-inoculation, the mice were randomly divided into four groups and treated by daily injection of equimolar doses (10 μL of 100 mM stock) of aspirin (9.00 mg kg^−1), IPA/NO-aspirin (15.8 mg kg^−1) or DEA/NO-aspirin (16.3 mg kg^−1) or with vehicle (DMSO). After five weeks, the tumor size was measured using in vivo fluorescent imaging for quantification of the GFP tag. In brief, mice were under general anesthesia throughout the whole body imaging process, and GFP signals were captured and quantified in an Xenogen IVIS 100 Imaging System according to the manufacturer's protocol. To assess metastasis in the brain, the animals were subsequently sacrificed following the approved method and guidelines.

MB-231 cells = assay: cells; conditions: Homo sapiens, 48 h
Method: In this example, a 3-(4,5-dimethylthiazol-2-yl)-2,5-diphenyltetrazolium bromide (MTT)viability assay was used to evaluate combination therapy to on the cytotoxicity of cancer cells using compound embodiments.
Cells were plated at 8,000-10,000 cells per well in a 96-well plate and grown overnight. […] Thereafter, 10 μL of 5 mg/mL MTT was added to each well, and the plate was incubated for 1 hour at 37° C. After removal of the media, 100 μL of DMSO was added to each well, and the absorbance was recorded at 550 nm. Growth inhibition is reported as the percentage of the corresponding control.

[7] = porcine liver esterase 20 μL in 3 mL, pH 7.4

T1 sequence (P09874 whole entry): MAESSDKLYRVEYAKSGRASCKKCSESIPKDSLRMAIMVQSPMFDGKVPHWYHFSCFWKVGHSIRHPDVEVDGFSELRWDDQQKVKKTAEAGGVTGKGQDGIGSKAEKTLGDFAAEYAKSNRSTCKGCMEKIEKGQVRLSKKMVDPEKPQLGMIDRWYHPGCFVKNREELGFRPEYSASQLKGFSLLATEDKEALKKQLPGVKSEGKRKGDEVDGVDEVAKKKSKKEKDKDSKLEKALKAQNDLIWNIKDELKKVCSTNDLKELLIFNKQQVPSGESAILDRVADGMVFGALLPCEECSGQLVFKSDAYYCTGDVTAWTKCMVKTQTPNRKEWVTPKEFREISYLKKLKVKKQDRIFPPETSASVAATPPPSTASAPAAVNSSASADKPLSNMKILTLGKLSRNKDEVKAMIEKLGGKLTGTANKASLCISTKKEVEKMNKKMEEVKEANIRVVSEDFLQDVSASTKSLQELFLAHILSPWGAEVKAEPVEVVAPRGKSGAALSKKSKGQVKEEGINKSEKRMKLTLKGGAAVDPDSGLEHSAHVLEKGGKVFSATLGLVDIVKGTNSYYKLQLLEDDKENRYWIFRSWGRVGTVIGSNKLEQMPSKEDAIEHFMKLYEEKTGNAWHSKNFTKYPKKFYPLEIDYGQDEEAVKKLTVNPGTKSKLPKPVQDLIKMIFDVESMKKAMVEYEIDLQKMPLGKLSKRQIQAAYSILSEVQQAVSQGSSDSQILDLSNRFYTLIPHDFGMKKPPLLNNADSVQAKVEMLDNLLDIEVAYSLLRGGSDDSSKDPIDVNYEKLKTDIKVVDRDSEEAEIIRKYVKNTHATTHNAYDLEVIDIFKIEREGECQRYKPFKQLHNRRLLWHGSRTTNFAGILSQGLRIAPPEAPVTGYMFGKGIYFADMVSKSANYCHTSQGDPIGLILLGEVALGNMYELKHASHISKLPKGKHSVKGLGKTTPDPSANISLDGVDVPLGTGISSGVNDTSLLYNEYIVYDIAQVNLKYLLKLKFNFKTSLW
Sequence of hypoxia-inducible factor (HIF) 1α (Q16665 whole entry): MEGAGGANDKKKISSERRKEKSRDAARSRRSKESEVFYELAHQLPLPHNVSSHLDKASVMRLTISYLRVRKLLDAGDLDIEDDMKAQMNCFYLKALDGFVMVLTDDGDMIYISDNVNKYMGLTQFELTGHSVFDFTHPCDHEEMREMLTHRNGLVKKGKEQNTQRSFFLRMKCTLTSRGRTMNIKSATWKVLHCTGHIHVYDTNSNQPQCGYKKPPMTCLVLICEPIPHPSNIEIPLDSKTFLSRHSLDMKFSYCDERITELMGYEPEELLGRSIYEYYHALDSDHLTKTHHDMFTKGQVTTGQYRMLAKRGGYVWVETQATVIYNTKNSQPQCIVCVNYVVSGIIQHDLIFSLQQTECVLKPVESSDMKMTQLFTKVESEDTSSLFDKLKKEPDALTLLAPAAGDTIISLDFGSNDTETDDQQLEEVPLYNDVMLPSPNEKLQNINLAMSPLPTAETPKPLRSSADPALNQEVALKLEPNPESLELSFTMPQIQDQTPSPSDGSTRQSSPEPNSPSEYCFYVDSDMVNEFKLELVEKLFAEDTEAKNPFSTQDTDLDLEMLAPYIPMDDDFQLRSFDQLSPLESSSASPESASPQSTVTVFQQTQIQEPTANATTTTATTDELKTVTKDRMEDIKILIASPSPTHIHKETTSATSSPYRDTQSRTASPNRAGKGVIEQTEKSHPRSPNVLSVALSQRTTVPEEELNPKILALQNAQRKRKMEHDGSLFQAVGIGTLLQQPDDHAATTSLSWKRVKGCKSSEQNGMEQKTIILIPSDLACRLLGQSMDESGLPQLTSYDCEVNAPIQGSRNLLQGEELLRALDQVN

SMILES: [Na+].[Na+].[O-][N+]([O-])=NO [Angeli's salt, Na2N2O3]
- inhibitory effect on PARP activity (PARP): rapid, but required rather high concentrations of donor
- angiogenesis [1]: inhibited angiogenesis
- HIF 1α [2]: inhibited
- tumor growth (MDA-MB-231 xenograft): some inhibition of tumor growth
- serum VEGF levels [3]: decreased

SMILES: CC(C)N[N+]([O-])=N[O-].[Na+] [Compound 1, O^2-Sodium 1-(N-Isopropylamino)diazen-1-ium-1,2-diolate, reference compound]
- hydrolysis at pH 11 ([4]; pH 11): hydrolyzed slowly
- hydrolysis rate relative to 2 (more slowly) ([4]; pH 11): 100 fold
- pH dependence of hydrolysis rate ([5]; PBS with 50 μM DTPA): slowed as the pH was increased from 3 to 10, with a small increase in rate thereafter
- rate of decay of 1 ([5]; PBS with 50 μM DTPA, 37° C. (FIG. 3A)): 0.0012 s⁻¹
- rate of decay of 1 (porcine liver esterase; 1 formed from 2 with esterase, pH 7.4 (FIG. 4C)): 0.0033 s⁻¹
- oxidation of DCF (fluorescence intensity) (MDA-MB-231 cells): oxidized DCF, but to a much reduced extent

SMILES: CC(=O)OCO/N=[N+](\[O-])NC(C)C [Compound 2, O^2-(acetoxymethyl)1-(isopropylamino)diazen-1-ium-1,2-diolate]
- time to complete dissociation ([4]; 37° C., pH 11 carbonate buffer): ≤ 5 min
- pH dependence of hydrolysis rate ([5]; PBS with 50 μM DTPA): essentially first order in hydroxide ion concentration between pH 5 and 11
- hydrolysis rate relative to 1 ([5]; physiological pH): an order of magnitude slower
- rate of hydrolysis of 2 to 1 (porcine liver esterase; [7]): 0.067 s⁻¹
- time to complete hydrolysis of 2 to 1 (porcine liver esterase; [7]): ≤ 40 s

SMILES: CCN(CC)[N+]([O-])=N[O-].[Na+] [DEA/NO, O^2-Sodium 1-(N,N-Diethylamino)diazen-1-ium-1,2-diolate]
- inhibitory effect on PARP activity (PARP): rapid, but required rather high concentrations of donor
- oxidation of DCF (fluorescence intensity) (MDA-MB-231 cells): oxidized DCF, but to a much reduced extent

SMILES: CC(=O)Oc1ccccc1C(=O)O [aspirin, reference compound]
- IC50 [6]: > 1000 µM
- BCL-2 expression (BCL-2): induce BCL-2 expression
- ER-α levels (ER-α): increases ERα levels
- oxidation of DCF (fluorescence intensity) (MDA-MB-231 cells): ineffective compared to control
- size of the primary tumor (GFP fluorescence intensity, tumor mass) (MDA-MB-231 xenografts): did not significantly decrease

SMILES: CC/C(=C(\c1ccccc1)c1ccc(OCCN(C)C)cc1)c1ccccc1 [tamoxifen]
- viability at 10 µM (MB-231 cells): 76%
